Biological target: PD-1/PD-L1 interaction (PD-1-Ig / PD-L1-His) (Homo sapiens (Human), UniProt Q9NZQ7)
Experiment: PD-1/PD-L1 Homogenous Time-Resolved Fluorescence (HTRF) binding assay
Conditions: PD-1/PD-L1 HTRF binding assay; value given as number; read-out: Range or IC50
Text: The ability of the compounds of formula (I) to bind to PD-L1 was investigated using a PD-1/PD-L1 Homogenous Time-Resolved Fluorescence (HTRF) binding assay.
Homogenous Time-Resolved Fluorescence (HTRF) Binding Assay.
The interaction of PD-1 and PD-L1 can be assessed using soluble, purified preparations of the extracellular domains of the two proteins. The PD-1 and PD-L1 protein extracellular domains were expressed as fusion proteins with detection tags, for PD-1, the tag was the Fc portion of Immunoglobulin (PD-1-Ig) and for PD-L1 it was the 6 histidine motif (PD-L1-His). All binding studies were performed in an HTRF assay buffer consisting of dPBS supplemented with 0.1% […] bovine serum albumin and 0.05% (v/v) Tween-20. For the h/PD-L1-His binding assay, inhibitors were pre-incubated with PD-L1-His (10 nM final) for 15 m in 4 μl of assay buffer, followed by addition of PD-1-Ig (20 nM final) in 1 μl of assay buffer and further incubation for 15 m. HTRF detection was achieved using europium crypate-labeled anti-Ig (1 nM final) and allophycocyanin (APC) labeled anti-His (20 nM final). Antibodies were diluted in HTRF detection buffer and 5 μl was dispensed on top of the binding reaction. The reaction mixture was allowed to equilibrate for 30 minutes and the resulting signal (665 nm/620 nm ratio) was obtained using an EnVision fluorometer. Additional binding assays were established between the human proteins PD-1-Ig/PD-L2-His (20 & 5 nM, respectively) and CD80-His/PD-L1-Ig (100 & 10 nM, respectively).
Recombinant Proteins. Human PD-1 (25-167) with a C-terminal human Fc domain of immunoglobulin G (Ig) epitope tag [hPD-1 (25-167)-3S-IG] and human PD-L1 (18-239) with a C-terminal His epitope tag [hPD-L1(18-239)-TVMV-His] were expressed in HEK293T cells and purified sequentially by ProteinA affinity chromatography and size exclusion chromatography. Human PD-L2-His and CD80-His was obtained through commercial sources.
Ranges are as follows: A=0.001 to 0.010 micromolar; B=0.011 to 0.150 micromolar; C=0.151 to 10 micromolar.

Sequence of PD-1/PD-L1 interaction (PD-1-Ig / PD-L1-His) (Q9NZQ7 other isoform, or with tags, fused parts or gaps): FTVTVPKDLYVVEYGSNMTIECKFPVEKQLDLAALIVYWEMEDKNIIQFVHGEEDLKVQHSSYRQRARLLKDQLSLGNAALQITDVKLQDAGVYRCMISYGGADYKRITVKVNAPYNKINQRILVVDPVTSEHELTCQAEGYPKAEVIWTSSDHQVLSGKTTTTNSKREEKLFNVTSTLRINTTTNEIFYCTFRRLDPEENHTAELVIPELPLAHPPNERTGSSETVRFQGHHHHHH

IC50 [nM] | Structure (SMILES)
1570 | Cc1c(COc2cc(OCc3cncc(C#N)c3)c(CN[C@](C)(CO)C(=O)O)cc2Cl)cccc1-c1cnc2ccc(Br)cc2n1 [Example 1010, (R)-2-((4-((3-(7-bromoquinoxalin-2-yl)-2-methylbenzyl)oxy)-5-chloro-2-((5-cyanopyridin-3-yl)methoxy)benzyl)amino)-3-hydroxy-2-methylpropanoic acid]

Same assay, conditions: PD-1/PD-L1 HTRF binding assay; value given as range class; read-out: Range or IC50

Structure (SMILES) | IC50 [nM]
Cc1c(COc2cc(OCc3cncc(C#N)c3)c(CN[C@](C)(CO)C(=O)O)cc2Cl)cccc1-c1ccc2cnccc2c1 [Example 1009, (R)-2-((5-chloro-2-((5-cyanopyridin-3-yl)methoxy)-4-((3-(isoquinolin-6-yl)-2-methylbenzyl)oxy)benzyl)amino)-3-hydroxy-2-methylpropanoic acid] | 11 to 150
Cc1c(COc2cc(OCc3cncc(C#N)c3)c(CN[C@](C)(CO)C(=O)O)cc2Cl)cccc1-c1ccc2cccnc2c1 [Example 1001, (R)-2-((5-chloro-2-((5-cyanopyridin-3-yl)methoxy)-4-((2-methyl-3-(quinolin-7-yl)benzyl)oxy)benzyl)amino)-3-hydroxy-2-methylpropanoic acid] | 11 to 150
Cc1c(COc2cc(OCc3cncc(C#N)c3)c(CN[C@](C)(CO)C(=O)O)cc2Cl)cccc1-c1ccc2occc2c1 [Example 1013, (R)-2-((4-((3-(benzofuran-5-yl)-2-methylbenzyl)oxy)-5-chloro-2-((5-cyanopyridin-3-yl)methoxy)benzyl)amino)-3-hydroxy-2-methylpropanoic acid] | 11 to 150
Cc1c(COc2cc(OCc3cncc(C#N)c3)c(CN[C@](C)(CO)C(=O)O)cc2Cl)cccc1-c1ccc2ncsc2c1 [Example 1011, (R)-2-((4-((3-(benzo[d]thiazol-6-yl)-2-methylbenzyl)oxy)-5-chloro-2-((5-cyanopyridin-3-yl)methoxy)benzyl)amino)-3-hydroxy-2-methylpropanoic acid] | 11 to 150
Cc1c(COc2cc(OCc3cncc(C#N)c3)c(CN[C@](C)(CO)C(=O)O)cc2Cl)cccc1-c1ccc2ncccc2c1 [Example 1005, (R)-2-((5-chloro-2-((5-cyanopyridin-3-yl)methoxy)-4-((2-methyl-3-(quinolin-6-yl)benzyl)oxy)benzyl)amino)-3-hydroxy-2-methylpropanoic acid] | 151 to 10000
Cc1c(COc2cc(OCc3cncc(C#N)c3)c(CN[C@](C)(CO)C(=O)O)cc2Cl)cccc1-c1cc2ccccc2cn1 [Example 1007, (R)-2-((5-chloro-2-((5-cyanopyridin-3-yl)methoxy)-4-((3-(isoquinolin-3-yl)-2-methylbenzyl)oxy)benzyl)amino)-3-hydroxy-2-methylpropanoic acid] | 151 to 10000
Cc1c(OCCCN2CCCCC2)cccc1-c1ccnc(COc2cc(OCc3cncc(C#N)c3)c(CN[C@@](C)(CO)C(=O)O)cc2Cl)c1C [Example 2015, (S)-2-((5-chloro-2-((5-cyanopyridin-3-yl)methoxy)-4-((3-methyl-4-(2-methyl-3-(3-(piperidin-1-yl)propoxy)phenyl)pyridin-2-yl)methoxy)benzyl)amino)-3-hydroxy-2-methylpropanoic acid] | 1 to 10
Cc1c(COc2cc(OCc3cncc(C#N)c3)c(CN[C@](C)(CO)C(=O)O)cc2Cl)cccc1-c1cnc2ccccc2c1 [Example 1002, (R)-2-((5-chloro-2-((5-cyanopyridin-3-yl)methoxy)-4-((2-methyl-3-(quinolin-3-yl)benzyl)oxy)benzyl)amino)-3-hydroxy-2-methylpropanoic acid] | 151 to 10000

Next, values leading:

IC50 [nM] | Structure (SMILES)
151 to 10000 | Cc1c(COc2cc(OCc3cncc(C#N)c3)c(CN[C@@](C)(CO)C(=O)O)cc2Cl)cccc1-c1cccn(CCCN2CC[C@@H](O)C2)c1=O [Example 1037, (S)-2-((5-chloro-2-((5-cyanopyridin-3-yl)methoxy)-4-((3-(1-(3-((R)-3-hydroxypyrrolidin-1-yl)propyl)-2-oxo-1,2-dihydropyridin-3-yl)-2-methylbenzyl)oxy)benzyl)amino)-3-hydroxy-2-methylpropanoic acid]
1 to 10 | Cc1c(COc2cc(OCc3cncc(C#N)c3)c(CN3CCCC[C@H]3C(=O)O)cc2Cl)cncc1-c1cccc(OCCCN2CC[C@@H](O)C2)c1C [Example 2005, (S)-1-(5-chloro-2-((5-cyanopyridin-3-yl)methoxy)-4-((5-(3-(3-((R)-3-hydroxypyrrolidin-1-yl)propoxy)-2-methylphenyl)-4-methylpyridin-3-yl)methoxy)benzyl)piperidine-2-carboxylic acid]
151 to 10000 | Cc1nn(CCCCN2CC[C@H](O)C2)c(C)c1-c1cccc(COc2cc(OCc3cncc(C#N)c3)c(CN[C@](C)(CO)C(=O)O)cc2Cl)c1C [Example 2003, (R)-2-((5-chloro-2-((5-cyanopyridin-3-yl)methoxy)-4-((3-(1-(4-((S)-3-hydroxypyrrolidin-1-yl)butyl)-3,5-dimethyl-1H-pyrazol-4-yl)-2-methylbenzyl)oxy)benzyl)amino)-3-hydroxy-2-methylpropanoic acid]
151 to 10000 | Cc1c(COc2cc(OCc3cncc(C#N)c3)c(CO)cc2Cl)cccc1-c1cccc(OCCCN2CC[C@@H](O)C2)n1 [Example 1031, (R)-5-((4-chloro-2-(hydroxymethyl)-5-((3-(6-(3-(3-hydroxypyrrolidin-1-yl)propoxy)pyridin-2-yl)-2-methylbenzyl)oxy)phenoxy)methyl)nicotinonitrile]
1 to 10 | CCC(CO)(CO)NCc1cc(Cl)c(OCc2nccc(-c3cccc(OCCCN4CC[C@@H](O)C4)c3C)c2C)cc1OCc1cncc(C#N)c1 [Example 2013, (R)-5-((4-chloro-2-(((1-hydroxy-2-(hydroxymethyl)butan-2-yl)amino)methyl)-5-((4-(3-(3-(3-hydroxypyrrolidin-1-yl)propoxy)-2-methylphenyl)-3-methylpyridin-2-yl)methoxy)phenoxy)methyl)nicotinonitrile]
151 to 10000 | Cc1nn(-c2cccc(COc3cc(OCc4cncc(C#N)c4)c(CN4CC[C@@H](O)C4)cc3Cl)c2C)c(C)c1CN1CC[C@@H](O)C1 [Example 2007, 5-((4-chloro-2-(((R)-3-hydroxypyrrolidin-1-yl)methyl)-5-((3-(4-(((R)-3-hydroxypyrrolidin-1-yl)methyl)-3,5-dimethyl-1H-pyrazol-1-yl)-2-methylbenzyl)oxy)phenoxy)methyl)nicotinonitrile]
1 to 10 | Cc1c(COc2cc(OCc3cncc(C#N)c3)c(CNC(C)(C)C(=O)O)cc2Cl)cccc1-c1ccc2ncoc2c1 [Example 1016, 2-((4-((3-(benzo[d]oxazol-6-yl)-2-methylbenzyl)oxy)-5-chloro-2-((5-cyanopyridin-3-yl)methoxy)benzyl)amino)-2-methylpropanoic acid]
11 to 150 | Cc1c(COc2cc(OCc3cncc(C#N)c3)c(CN3CCCC[C@@H]3C(=O)O)cc2Cl)cccc1-c1ccc2nccnc2c1 [Example 1033, (R)-1-(5-chloro-2-((5-cyanopyridin-3-yl)methoxy)-4-((2-methyl-3-(quinoxalin-6-yl)benzyl)oxy)benzyl)piperidine-2-carboxylic acid]
11 to 150 | Cc1c(COc2cc(OCc3cncc(C#N)c3)c(CNC(C)(C)C(=O)O)cc2Cl)cccc1-c1ccc2ccoc2c1 [Example 1018, 2-((4-((3-(benzofuran-6-yl)-2-methylbenzyl)oxy)-5-chloro-2-((5-cyanopyridin-3-yl)methoxy)benzyl)amino)-2-methylpropanoic acid]
1 to 10 | Cc1c(COc2cc(OCc3cncc(C#N)c3)c(CN[C@](C)(CO)C(=O)O)cc2Cl)cccc1-c1ccc2oc(CCN3CC[C@@H](O)C3)nc2c1 [Example 1028, (R)-2-((5-chloro-2-((5-cyanopyridin-3-yl)methoxy)-4-((3-(2-(2-((R)-3-hydroxypyrrolidin-1-yl)ethyl)benzo[d]oxazol-5-yl)-2-methylbenzyl)oxy)benzyl)amino)-3-hydroxy-2-methylpropanoic acid]
1 to 10 | Cc1c(COc2cc(OCc3cncc(C#N)c3)c(CN[C@](C)(CO)C(=O)O)cc2Cl)cccc1-c1ccc2ocnc2c1 [Example 1012, (R)-2-((4-((3-(benzo[d]oxazol-5-yl)-2-methylbenzyl)oxy)-5-chloro-2-((5-cyanopyridin-3-yl)methoxy)benzyl)amino)-3-hydroxy-2-methylpropanoic acid]
11 to 150 | Cc1c(OCCCN2CC[C@@H](O)C2)cccc1-c1ccnc(COc2cc(OCc3cncc(C#N)c3)c(CN3CCCC[C@H]3C(=O)O)cc2Cl)c1C [Example 2011, (S)-1-(5-chloro-2-((5-cyanopyridin-3-yl)methoxy)-4-((4-(3-(3-((R)-3-hydroxypyrrolidin-1-yl)propoxy)-2-methylphenyl)-3-methylpyridin-2-yl)methoxy)benzyl)piperidine-2-carboxylic acid]

Reference: patent US10590105B2, “1,3-dihydroxy-phenyl derivatives useful as immunomodulators” (BRISTOL-MYERS SQUIBB COMPANY, priority 2016, dated 2020)
